Results taken from patent publication US9353090B2, “Heterocyclic carboxylic acids as activators of soluble guanylate cyclase” (Boehringer Ingelheim International GmbH, priority 2014, dated 2016).
≈ marks a conversion by molar mass, not a printed value.

What was measured:
[1] = 24 h
Protocol: (§2) Solubility is measured by the following method.
(§3) 100 uL, 10 mM DMSO stock solution of each compound is prepared in a 96 well plate format. The experiment is done in single determination at 3 pH values (2.2, 4.5 and 6.8). For each pH and one reference, 40 uL of each compound is needed.
(§4) McIlvaine pH 2.2: To 2.076 g citric acid monohydrate and 0.043 g Na2HPO4×2H2O add 100 ml deionized water
(§5) McIlvaine pH 4.5: To 1.166 g citric acid monohydrate and 1.585 g Na2HPO4×2H2O add 100 ml deionized water
(§6) McIlvaine pH 6.8: To 0.476 g citric acid monohydrate and 2.753 g Na2HPO4×2H2O add 100 ml deionized water
(§7) With a suitable liquid handling device (Multipette® or a liquid handler) 390 uL of each buffer solution and 10 uL of compound is added to each well of a 96 deep well plate. The plates are covered firmly and shaken for 24 h on an over head shaker (at 54 RPM) at room temperature. The DMSO content in the final buffer is 2.5% v/v.
(§8) After 24 h the plates are centrifuged to remove droplets on the lid before opening (for ˜5 min at 2500 RPM).
(§9) The filtration is done under vacuum with Millipore 96 well filter plate. Filtrate is collected in a deep well plate and transferred to a suitable plate for UPLC analysis.
(§10) The reference plate is prepared by adding 10 uL of compound to 390 uL of 50:50 acetonitrile/water in a 96 deep well plate and transferred to a suitable plate for UPLC analysis. Wells are checked visually for precipitation, any presence noted under comments in reported results.
(§11) The samples are measured with UPLC-UV using the chromatographic method described below.
(§12) Waters Empower®2 software is used for generating Sample Sets (according to the plate layout), Sample Set Methods and Instrument Methods.
(§13) One Sample Set comprises the methods for three 96 well plates (one reference plate and two sample plates, and includes one Sample Set Method and one Instrument Method).
Data Processing and Analysis
(§14) The UV chromatograms collected at 254 nm are integrated and processed.
(§15) It is assumed that the compound is completely dissolved in the reference solution (50:50 acetonitrile/water)

[2] = Human liver microsome (HLM) metabolic stability assay; format: in vitro ADME; conditions: human liver microsomes
Procedure, shortened: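 Compound at 1 uM incubated with human liver microsomes at 37° C. for 60 min after NADPH addition. Aliquots quenched in cold acetonitrile at 0, 5, 15, 30 and 60 min and analysed by LC/MS/MS. t1/2 from ln(% remaining) vs time slope; CLint, CLh and % Qh derived from it (n=1).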

[3] = molecular target: human soluble guanylate cyclase alpha 1 and beta 1 subunits (sGC) (Homo sapiens (Human), UniProt Q02108+Q02153); experiment: sGC cellular activator assay (cGMP, HTRF), in the presence and absence of 50% human serum; format: cell-based; conditions: CHO cells stably expressing human sGC alpha 1/beta 1, preincubated with 40 microM ODQ; cGMP by HTRF; Table 2 does not state whether with or without 50% human serum
Procedure, shortened: (§1)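 Heme-oxidized conditions: ODQ (40 microM, 1 h) pretreatment of CHO cells stably expressing human α1/β1 sGC, in buffer containing 0.1% BSA and IBMX.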

[4] = molecular target: human soluble guanylate cyclase alpha 1 and beta 1 subunits (sGC) (Homo sapiens (Human), UniProt Q02153); experiment: as above; format: cell-based; conditions: CHO cells stably expressing human sGC alpha 1/beta 1, preincubated with 40 microM ODQ; cGMP by HTRF; Table 2 does not state whether with or without 50% human serum
Procedure, shortened: as §1

physchem = conditions: kinetic from dmso stock
Protocol: as §2, §3, §4, §5, §6, §7, §8, §9, §10, §11, §12, §13
Data Processing and Analysis
as §14, §15

[5] = pH 2.2, aqueous buffer, Solubility (pH 2.2)
[6] = pH 4.5, aqueous buffer, Solubility (pH 4.5)
[7] = pH 6.8, aqueous buffer, Solubility (pH 6.8)

Sequence of human soluble guanylate cyclase alpha 1 and beta 1 subunits (sGC) (Homo sapiens (Human), UniProt Q02108+Q02153) (Q02108 whole entry partner): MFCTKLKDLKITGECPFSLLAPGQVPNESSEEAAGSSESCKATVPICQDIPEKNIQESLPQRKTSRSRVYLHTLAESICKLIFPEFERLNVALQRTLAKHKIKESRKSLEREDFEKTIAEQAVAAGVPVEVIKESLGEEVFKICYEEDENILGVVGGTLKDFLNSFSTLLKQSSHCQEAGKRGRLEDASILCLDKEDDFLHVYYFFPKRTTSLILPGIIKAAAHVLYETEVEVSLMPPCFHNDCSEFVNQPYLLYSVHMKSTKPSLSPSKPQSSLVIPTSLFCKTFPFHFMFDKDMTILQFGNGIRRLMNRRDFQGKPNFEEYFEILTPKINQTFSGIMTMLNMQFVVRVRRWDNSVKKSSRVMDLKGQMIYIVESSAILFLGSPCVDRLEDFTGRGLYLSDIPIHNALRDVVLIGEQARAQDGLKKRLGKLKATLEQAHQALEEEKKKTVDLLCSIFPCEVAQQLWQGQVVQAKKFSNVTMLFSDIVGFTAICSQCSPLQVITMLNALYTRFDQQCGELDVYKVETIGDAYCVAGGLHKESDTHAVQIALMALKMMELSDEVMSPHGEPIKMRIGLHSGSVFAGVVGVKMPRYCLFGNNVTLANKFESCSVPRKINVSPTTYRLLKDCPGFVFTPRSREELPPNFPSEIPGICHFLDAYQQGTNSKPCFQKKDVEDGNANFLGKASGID
Sequence of human soluble guanylate cyclase alpha 1 and beta 1 subunits (sGC) (Homo sapiens (Human), UniProt Q02108+Q02153) (Q02153 whole entry): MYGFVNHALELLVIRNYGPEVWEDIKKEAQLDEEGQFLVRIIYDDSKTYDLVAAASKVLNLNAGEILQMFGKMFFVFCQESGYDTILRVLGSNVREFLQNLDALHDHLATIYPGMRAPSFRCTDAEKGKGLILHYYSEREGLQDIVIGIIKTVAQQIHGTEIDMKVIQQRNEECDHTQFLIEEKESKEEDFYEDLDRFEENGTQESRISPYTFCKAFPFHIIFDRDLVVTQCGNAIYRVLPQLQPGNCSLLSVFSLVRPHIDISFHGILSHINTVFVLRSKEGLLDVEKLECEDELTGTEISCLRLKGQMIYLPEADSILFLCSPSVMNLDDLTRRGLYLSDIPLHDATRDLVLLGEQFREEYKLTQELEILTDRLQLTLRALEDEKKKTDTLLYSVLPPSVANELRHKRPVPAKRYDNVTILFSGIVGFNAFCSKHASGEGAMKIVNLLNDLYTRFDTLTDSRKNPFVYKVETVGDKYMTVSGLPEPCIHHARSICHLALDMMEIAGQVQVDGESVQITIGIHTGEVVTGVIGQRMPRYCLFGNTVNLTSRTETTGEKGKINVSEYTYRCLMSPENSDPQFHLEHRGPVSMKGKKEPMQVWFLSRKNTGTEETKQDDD
Sequence of human soluble guanylate cyclase alpha 1 and beta 1 subunits (sGC) (Homo sapiens (Human), UniProt Q02153) (Q02108 whole entry partner): as the sequence (Q02108 whole entry partner) above
Sequence of human soluble guanylate cyclase alpha 1 and beta 1 subunits (sGC) (Homo sapiens (Human), UniProt Q02153) (Q02153 whole entry): as the sequence (Q02153 whole entry) above

Solubility (pH 2.2) [1] [μg/mL] | Solubility (pH 4.5) [1] [μg/mL] | Solubility (pH 6.8) [1] [μg/mL] | Metabolic stability (Qh %), % hepatic blood flow [2] [%] | EC50 [3] [µM] | EC50 [4] [µM] | solubility at 24 h (physchem; [5]) [µg/mL] | solubility at 24 h (physchem; [6]) [µg/mL] | solubility at 24 h (physchem; [7]) [µg/mL] | SMILES
130 | 96 | 90 | <24 | 0.029 |  |  |  |  | CO[C@H]1CN(c2nc(-c3cccc(C)c3OCc3cc(C)c4c(c3)CCN(CC3COCCO3)C4)cs2)CC[C@H]1C(=O)O (single isomer, unassigned) [Compound 169]
140 | 70 | 51 | <24 | 0.002 |  |  |  |  | Cc1cc(COc2c(C)cccc2-c2csc(N3CC[C@@]4(C(=O)O)C[C@H]4C3)n2)cc2c1CN(CC1COCCO1)CC2 (some centres unmarked) [Compound 93]
140 | 95 | 89 | <24 | 0.064 |  |  |  |  | CO[C@@H]1CN(c2nc(-c3cccc(C)c3OCc3cc(C)c4c(c3)CCN(CC3COCCO3)C4)cs2)CC[C@@H]1C(=O)O (some centres unmarked) [Compound 176]

The next lines start with the compound.

SMILES | Solubility (pH 2.2) [1] [μg/mL] | Solubility (pH 4.5) [1] [μg/mL] | Solubility (pH 6.8) [1] [μg/mL] | Metabolic stability (Qh %), % hepatic blood flow [2] [%] | EC50 [3] [µM] | EC50 [4] [µM] | solubility at 24 h (physchem; [5]) [µg/mL] | solubility at 24 h (physchem; [6]) [µg/mL] | solubility at 24 h (physchem; [7]) [µg/mL]
COC[C@H]1N(c2cccc(-c3cccc(C)c3OCc3cc(C)c4c(c3)CCN(C3CCOC3)C4)n2)C[C@@H]2C[C@@]21C(=O)O (single isomer, unassigned) [Compound 52] | 110 | 93 | 76 | 38 | 0.012 |  |  |  | 
Cc1c(COc2ccccc2-c2cccc(N3CC[C@@]4(C(=O)O)C[C@H]4C3)n2)ccc2c1CCN(C1CCOCC1)C2 [Compound 3] | 140 | 120 | 60 | <24 |  | 0.003 |  |  | 
Cc1cc(COc2c(C)cccc2-c2cccc(N3C[C@@H]4C[C@]4(C(=O)O)C3)n2)cc2c1CN(C1CCOC1)CC2 (some centres unmarked) [Compound 25] | 100 | 89 | 62 | <24 | 0.016 |  |  |  | 
Cc1cc(COc2c(C)cccc2-c2cccc(N3C[C@@H]4C[C@]4(C(=O)O)C3)n2)cc2c1CN(C1CCOC1)CC2 (some centres unmarked) [Compound 26] | 110 | 90 | 67 | <24 | 0.009 |  |  |  | 
CO[C@@H]1CN(c2cccc(-c3cc(C)ccc3OCc3cc(C)c4c(c3)CCN(C3CCOC3)C4)n2)CC[C@@H]1C(=O)O (some centres unmarked) [Compound 78] | 110 | 91 | 63 | <24 | 0.026 |  |  |  | 
Cc1cccc(-c2cccc(N3CC[C@H](C(=O)O)[C@@H]4OCCC[C@H]43)n2)c1OCc1ccc2c(c1C)CCN(C1CCOCC1)CC2 [Compound 337] |  |  |  | <24 | 0.13 |  | 113 (≈ 181 µM) | 80.5 (≈ 129 µM) | 78 (≈ 125 µM)
CO[C@@H]1CN(c2cccc(-c3cccc(C)c3OCc3cc(C)c4c(c3)CN(C3CCOCC3)C4)n2)CC[C@@H]1C(=O)O [Compound 338] |  |  |  | <24 | 0.024 |  | 132 (≈ 230 µM) | 106 (≈ 185 µM) | 73.6 (≈ 129 µM)
